Target: T1, human TLR9 (Homo sapiens, UniProt Q9NR96)
T1 construct: expressed in transfected cells
T1 sequence (Q9NR96 26-1032): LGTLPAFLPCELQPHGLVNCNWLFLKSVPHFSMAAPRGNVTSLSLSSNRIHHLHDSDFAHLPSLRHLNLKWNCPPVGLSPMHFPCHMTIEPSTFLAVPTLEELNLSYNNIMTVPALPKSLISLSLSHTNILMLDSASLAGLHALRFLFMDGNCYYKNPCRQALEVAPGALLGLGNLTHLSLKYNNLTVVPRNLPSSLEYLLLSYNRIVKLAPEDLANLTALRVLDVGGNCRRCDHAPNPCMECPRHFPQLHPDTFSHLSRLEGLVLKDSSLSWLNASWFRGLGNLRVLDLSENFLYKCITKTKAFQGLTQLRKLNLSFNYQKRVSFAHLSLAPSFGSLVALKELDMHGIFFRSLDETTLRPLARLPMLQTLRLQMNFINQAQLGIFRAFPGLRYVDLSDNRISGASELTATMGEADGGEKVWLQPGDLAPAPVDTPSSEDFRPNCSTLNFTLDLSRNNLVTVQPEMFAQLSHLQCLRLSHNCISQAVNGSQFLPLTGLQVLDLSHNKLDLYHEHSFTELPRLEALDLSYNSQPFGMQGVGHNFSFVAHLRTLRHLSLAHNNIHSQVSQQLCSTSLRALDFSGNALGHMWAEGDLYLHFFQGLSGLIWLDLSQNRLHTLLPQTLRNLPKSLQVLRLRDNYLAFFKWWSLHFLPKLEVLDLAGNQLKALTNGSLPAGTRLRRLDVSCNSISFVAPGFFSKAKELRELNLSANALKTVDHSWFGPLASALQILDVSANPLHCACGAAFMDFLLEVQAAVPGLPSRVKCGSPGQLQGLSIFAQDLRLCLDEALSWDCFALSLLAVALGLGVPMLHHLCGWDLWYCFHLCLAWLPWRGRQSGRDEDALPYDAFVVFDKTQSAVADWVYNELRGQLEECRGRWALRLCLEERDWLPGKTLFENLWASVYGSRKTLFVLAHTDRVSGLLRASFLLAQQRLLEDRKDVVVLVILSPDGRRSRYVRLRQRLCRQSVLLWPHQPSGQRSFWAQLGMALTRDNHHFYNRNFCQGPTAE
Experiment: NF-κB-luciferase activation of stably transfected 293-hTLR9-luc cells by CpG ODN 2006 in presence of inhibitory ODN 2088 and/or chloroquine
Assay type: cell-based
Conditions: as Table 1: ODN 2088 0.05 μM
Description: To generate stable clones expressing human TLR9, murine TLR9, or either TLR9 with the NF-κB-luc reporter plasmid, 293 cells were transfected in 10 cm plates (2×10^6 cells/plate) with 16 μg of DNA and selected with 0.7 mg/mL G418 (PAA Laboratories GmbH, Cölbe, Germany). The clones were also screened for IL-8 production or NF-κB-luciferase activity after stimulation with ODN. Four different types of clones were generated.
NF-κB activation was measured by determining luciferase activity of cells 16 h later. Results are given as fold induction above medium background.

Molecule	Fold increase of EC50 compared to ODN 2006 + TE (chloroquine 0.039 μg/mL) [fold]	Fold increase of EC50 compared to ODN 2006 + TE (chloroquine 0.078 μg/mL) [fold]	Fold increase of EC50 compared to ODN 2006 + TE (chloroquine 0.3125 μg/mL) [fold]
CCN(CC)CCCC(C)Nc1ccnc2cc(Cl)ccc12 (stereo not drawn) [Chloroquine, chloroquine]	2.3	2.6	3.6
ODN 2088: inhibitory ODN, TCCTGGCGGGGAAGT, SEQ ID NO:7 (chemistry not given here)	14.7	4.2	8.0

— US20040009949A1, “Method for treating autoimmune or inflammatory diseases with combinations of inhibitory oligonucleotides and small molecule antagonists of immunostimulatory CpG nucleic acids” (Coley Pharmaceutical Group, Inc., priority 2002, published 2004)
